Source: patent US20230111066A1, “PIGMENTED SPOT FORMATION INHIBITOR, INCREASED MELANOSOME PHAGOCYTOSIS INHIBITOR, AND EPIDERMAL DIFFERENTIATION POTENCY IMPROVER” (SSP CO., LTD., priority 2021, published 2023)

Columns and labels:
[1] = system: normal human epidermal keratinocytes (NHEKs); experiment: Fluorescent bead (pseudo-melanosome) phagocytosis enhanced by UVB irradiation; format: cell-based
Description: Test Example 1: Enhancement of Fluorescent Bead Phagocytosis by UVB Irradiation and Enhanced Phagocytosis-Inhibiting Effect by VB6 A culture medium (HuMedia-KG2: manufactured by Kurabo Industries Ltd.) was added to a 96-well plate at 0.1 mL/well, and normal human epidermal keratinocytes (NHEKs) were seeded at a density of 2.5×10^4 cells/well, followed by incubation for 24 hours. These cells were divided into first to fourth groups. In the first group (vitamin B6+UVB group), the medium was replaced by a pyridoxine-containing culture medium (pyridoxine: 1 mM), followed by culturing for 24 hours, and irradiation with 20 mJ/cm^2 of UVB using a UVB broadband lamp manufactured by Koninklijke Philips N.V. was performed, followed by culturing for 24 hours. In the second group (vitamin B6 group), the medium was replaced by a pyridoxine-containing culture medium (pyridoxine: 1 mM), followed by culturing for 24 hours. […] Subsequently, the NHEKs of each group were allowed to incorporate fluorescent beads (manufactured by Thermo Fisher Scientific Inc.) as pseudo-melanosomes for 4 hours, and the uptake amount of the fluorescent beads per unit protein was then measured with a microplate reader (manufactured by Tecan Group Ltd.).

[2] = system: gene expression levels of keratin-10, involucrin, and loricrin; experiment: Degradation of epidermal differentiation potency by fluorescent bead phagocytosis, real-time PCR; format: cell-based, human
Description: Test Example 3: Effect of Improving Degradation of Epidermal Differentiation Potency by Fluorescent Bead Phagocytosis A culture medium (HuMedia-KG2) was added to a 96-well plate at 0.1 mL/well, and normal human epidermal keratinocytes (NHEKs) were seeded at a density of 2.5×10^4 cells/well, followed by incubation for 24 hours. These cells were divided into first to third groups. In the first group (vitamin B6+bead group), the medium was replaced by a pyridoxine-containing culture medium (pyridoxine: 1 mM), followed by culturing for 24 hours. The NHEKs were allowed to incorporate fluorescent beads (manufactured by Thermo Fisher Scientific Inc.) as pseudo-melanosomes for 4 hours, followed by further culturing in a fresh culture medium (HuMedia-KG2) for 20 hours. In the second group (bead group), after culturing for 24 hours, the NHEKs were allowed to incorporate fluorescent beads (manufactured by Thermo Fisher Scientific Inc.) as pseudo-melanosomes for 4 hours, followed by further culturing in a fresh culture medium (HuMedia-KG2) for 20 hours. In the third group (control group), the NHEKs were directly cultured for 48 hours. Subsequently, total RNA was extracted from the NHEKs of each group, and cDNA was produced by reverse transcription. Real-time PCR was performed using this cDNA as a template to detect gene expression levels of keratin-10, involucrin, and loricrin.

[3] = system: normal human epidermal keratinocytes (NHEKs); experiment: Fluorescent bead phagocytosis enhanced by BSO treatment; format: cell-based; conditions: 50 μM BSO, pyridoxine 0.25 mM, 0.5 mM, or 1 mM, FIG. 2
Description: Test Example 2: Enhancement of Fluorescent Bead Phagocytosis by BSO Treatment and Enhanced Phagocytosis-Inhibiting Effect by VB6 A culture medium (HuMedia-KG2) was added to a 96-well plate at 0.1 mL/well, and normal human epidermal keratinocytes (NHEKs) were seeded at a density of 2.5×10^4 cells/well, followed by incubation for 24 hours. These cells were divided into first to fourth groups. In the first group (vitamin B6+BSO group), treatment with 50 μM of buthionine sulfoximine (BSO: manufactured by Sigma-Aldrich Co. LLC) was performed for 24 hours, and the medium was then replaced by a pyridoxine-containing culture medium (pyridoxine: 0.25 mM, 0.5 mM, or 1 mM), followed by culturing for 24 hours. In the second group (vitamin B6 group), the medium was replaced by a pyridoxine-containing culture medium (pyridoxine: 0.25 mM, 0.5 mM, or 1 mM), followed by culturing for 24 hours. In the third group (BSO group), treatment with 50 μM of buthionine sulfoximine (BSO) was performed for 24 hours, followed by culturing in a KG2 culture medium for 24 hours. […] Subsequently, the NHEKs of each group were allowed to incorporate fluorescent beads (manufactured by Thermo Fisher Scientific Inc.) for 4 hours, and the uptake amount of the fluorescent beads per unit protein was then measured with a microplate reader (manufactured by Tecan Group Ltd.).

Row | Molecule | effect on increase in melanosome phagocytosis, summary statement on the Examples ([1]; general statement covering Test Examples 1 and 2) | effect on epidermal differentiation potency, summary statement on the Examples ([2]; general statement covering Test Example 3) | effect on increase in melanosome phagocytosis (uptake amount of fluorescent beads per unit protein) ([1]; NHEKs, pyridoxine 1 mM, 20 mJ/cm^2 UVB, FIG. 1) | effect on increase in melanosome phagocytosis (uptake amount of fluorescent beads per unit protein) [3] | effect on epidermal differentiation potency (gene expression of keratin-10, involucrin, loricrin) ([2]; NHEKs, pyridoxine 1 mM, fluorescent beads 4 hours, FIG. 3)
1 | vitamin B6 | excellent effects of inhibiting an increase in melanosome phagocytosis | improving epidermal differentiation potency |  |  | 
2 | Cc1ncc(CO)c(CO)c1O [pyridoxine] |  |  | inhibiting an increase in melanosome phagocytosis | inhibiting an increase in melanosome phagocytosis | improving epidermal differentiation potency
